{"source": "paper PMC9316000", "about": "“Preclinical Drug Pharmacokinetic, Tissue Distribution and Excretion Profiles of the Novel Limonin Derivate HY-071085 as an Anti-Inflammatory and Analgesic Candidate in Rats and Beagle Dogs” (Pharmaceuticals, 2022)", "key": {"[1]": {"assay": "Plasma protein binding, dog plasma", "type": "in vitro ADME", "conditions": "read-out: plasma protein binding rate (converted)", "protocol": "(§1) The PPB rate in dogs was about 40% at different concentrations in the concentration range (50–400 ng/mL), and in rats it was about 75%. The PPB rate in human plasma varied greatly at different concentrations, ranging from 100% at a low drug concentration to 58% at a high drug concentration, as shown in Table 4."}, "[2]": {"assay": "Excretion in feces, urine and bile (material balance) in rats", "type": "in vivo, Sprague Dawley rats", "protocol": "After the single-dose intragastric administration of HY-071085 (6.5 mg/kg) to male and female rats, their feces, urine and bile were collected at various time points within 24 h in order to analyze the excretion of HY-071085. The amount of unchanged parent compound recovered from the feces, urine and bile was negligible in rats (about 1.3% of the dose, Table 3).\nExcretion in urine and feces (rats): The Sprague Dawley rats were aged approximately 6 weeks old and weighed 185–212 g at the onset of treatment. Urine and fecal samples were collected for the excretion study using metabolic cages. After the oral administration of 6.5 mg/kg HY-071085, urine and feces were collected at 0–6, 6–12 and 12–24 h. The urine volumes were recorded and transferred to centrifuge tubes. The fecal weights were recorded at each sampling period, and then those feces were dried, ground and mixed thoroughly. Then, 0.1 g feces was accurately weighed, mixed with 1 mL deionized water, and homogenized to be used as a fecal sample. All of the samples were stored at –80 °C until the analysis.\nExcretion in bile (rats): The Sprague Dawley rats were approximately 6 weeks old and weighed 174–215 g at the onset of treatment. The rats were anesthetized with diethyl ether, and the bile duct was then cannulated for bile collection. After allowing recovery from surgery and anesthesia, these bile duct–cannulated rats were administered a single 6.5 mg/kg dose of HY-071085 by gastric gavage."}, "[3]": {"assay": "Plasma protein binding, rat plasma", "type": "in vitro ADME", "conditions": "read-out: plasma protein binding rate (converted)", "protocol": "as §1"}, "[4]": {"assay": "Plasma protein binding, human plasma", "type": "in vitro ADME", "conditions": "mean, read-out: plasma protein binding rate (converted)", "protocol": "as §1"}, "[5]": {"assay": "Stability in rat plasma under storage conditions", "type": "in vitro ADME", "conditions": "for stability in plasma, accuracy: n=5", "protocol": "The stability of HY-071085 in rat plasma was evaluated by analyzing five repeated QC samples under various storage conditions: long-term freezing (freezing at −80 °C for 30 days), repeated freezing and thawing (thawing with a 37 °C water bath after freezing at −80 °C, repeated three times), normal temperature placement (a 37 °C constant temperature water bath for 8 h), and injector placement (4 °C for 24 h)."}, "[6]": {"conditions": "gavage 6.5 mg/kg, within 24 h, % of the dose"}}, "note": "Entries after “also recorded” stand apart in the source; their conditions may differ.", "data": [{"smiles": "CC1(C)OC2CC(=O)OCC23C1C/C(=N\\OCCN1CCOCC1)C1(C)C3CC[C@@]2(C)[C@H](c3ccoc3)OC(=O)C3OC312", "note": "(stereo partly drawn) [HY-071085, (12S,12aS,E)-12-(furan-3-yl)-6,6,8a,12a-tetramethyl-8-((2-morpholinoethoxy)imino)dodecahydro-1H,3H-oxireno [2,3-d]pyrano [4’,3’:3,3a]isobenzofuro [5,4-f]isochromene-3,10(9aH)-dione]", "values": [{"measurement": "fraction unbound at 50 ng/mL", "setting": "[1]; 50 ng/mL, mean", "result": 0.622}, {"measurement": "fraction unbound at 100 ng/mL", "setting": "[1]; 100 ng/mL, mean", "result": 0.671}, {"measurement": "fraction unbound at 200 ng/mL", "setting": "[1]; 200 ng/mL, mean", "result": 0.578}, {"measurement": "fraction unbound at 400 ng/mL", "setting": "[1]; 400 ng/mL, mean", "result": 0.545}, {"measurement": "fraction unbound", "setting": "[1]; dog, dogs, concentration range 50–400 ng/mL", "result": "~0.6"}, {"measurement": "route of elimination", "setting": "[2]; excretion and material balance", "result": "mainly eliminated as metabolites; also recorded: mainly eliminated by metabolism"}, {"measurement": "HY-071085 prototype recovered in bile", "setting": "[2]; gavage 6.5 mg/kg, bile 0~8 h, % of the dose", "result": "0.206 ± 0.206", "unit": "%"}, {"measurement": "HY-071085 prototype recovered in feces", "setting": "[2]; [6]", "result": "0.812 ± 0.611", "unit": "%"}, {"measurement": "HY-071085 prototype recovered in urine", "setting": "[2]; [6]", "result": "0.254 ± 0.164", "unit": "%"}, {"measurement": "fraction unbound at 50 ng/mL", "setting": "[3]; 50 ng/mL, mean", "result": 0.261}, {"measurement": "fraction unbound at 100 ng/mL", "setting": "[3]; 100 ng/mL, mean", "result": 0.247}, {"measurement": "fraction unbound at 200 ng/mL", "setting": "[3]; 200 ng/mL, mean", "result": 0.228}, {"measurement": "fraction unbound at 400 ng/mL", "setting": "[3]; 400 ng/mL, mean", "result": 0.211}, {"measurement": "fraction unbound", "setting": "[3]; rat, rats, concentration range 50–400 ng/mL", "result": "~0.25"}, {"measurement": "fraction unbound at 100 ng/mL", "setting": "[4]; 100 ng/mL", "result": 0.267}, {"measurement": "fraction unbound at 200 ng/mL", "setting": "[4]; 200 ng/mL", "result": 0.325}, {"measurement": "fraction unbound at 400 ng/mL", "setting": "[4]; 400 ng/mL", "result": 0.384}, {"measurement": "stability in plasma, accuracy", "setting": "[5]; injector (24h, 4 °C), 2 ng/mL", "result": 105.00, "unit": "%"}, {"measurement": "stability in plasma, accuracy", "setting": "[5]; injector (24h, 4 °C), 800 ng/mL", "result": 101.55, "unit": "%"}, {"measurement": "stability in plasma, accuracy", "setting": "[5]; long-term freezing (−80 °C, 30 days), 2 ng/mL", "result": 112.40, "unit": "%"}, {"measurement": "stability in plasma, accuracy", "setting": "[5]; long-term freezing (−80 °C, 30 days), 800 ng/mL", "result": 101.50, "unit": "%"}, {"measurement": "stability in rat plasma", "setting": "[5]; long-term freezing, repeated freezing and thawing, 37 °C 8 h, injector 4 °C 24 h", "result": "stable"}, {"measurement": "stability in plasma, accuracy", "setting": "[5]; normal temperature (8h), 2 ng/mL", "result": 105.90, "unit": "%"}, {"measurement": "stability in plasma, accuracy", "setting": "[5]; normal temperature (8h), 800 ng/mL", "result": 97.70, "unit": "%"}, {"measurement": "stability in plasma, accuracy", "setting": "[5]; repeated freeze-thaw (three times), 2 ng/mL", "result": 97.40, "unit": "%"}, {"measurement": "stability in plasma, accuracy", "setting": "[5]; repeated freeze-thaw (three times), 800 ng/mL", "result": 97.33, "unit": "%"}]}]}
